Assay results taken from patent US7964539B2, “Well treatment” (Statoil ASA, priority 2004, dated 2011).
In brackets after ≈: the same amount, converted by molar mass.

What was measured:
[1] = Fish toxicity (LC50 fish); conditions: in vivo
Source text: (§1) Organosilanes for use in the invention include, for example, organosilane hydrides, organosilane alkoxides and organosilane amines. Organosilane compounds have the advantage that they are typically oil-soluble and have the necessary reactivity with water. […] Organosilanes for use in the invention preferably have a biodegradability of at least 60%.

[2] = test system: daphnia; experiment: Daphnia toxicity (EC50 daphnia); format: in vivo
Source text: as §1

[3] = test system: algae; experiment: Algae toxicity (IC50 algae); format: cell-based
Source text: as §1

[4] = Biodegradability, tested according to OECD 306
Source text: as §1

| Structure (SMILES) | LC50 [1] | EC50 [2] | IC50 [3] | biodegradability [4] |
| --- | --- | --- | --- | --- |
| CCO[Si](CCCN)(OCC)OCC [DYNASYLAN AMEO, 3-amino-propyltriethoxysilane] | 934 µg/mL (≈ 4220 µM) | 331 µg/mL (≈ 1500 µM) | 603 µg/mL (≈ 2720 µM) | 67% |
| CCO[Si](CCCNCCC[Si](OCC)(OCC)OCC)(OCC)OCC [DYNASYLAN bis-AMEO, bis(triethoxysilylpropyl)amine] | > 200 µg/mL | > 200 µg/mL | 125 µg/mL (≈ 294 µM) | 64.5% |
